Laboratory results from patent US7307166B1, “Oxpurine nucleosides and their congeners, and acyl, derivatives thereof, for improvement of hematopoiesis” (Wellstat Therapeutics Corporation, priority 1987, dated 2007).

Tests used:
[1] = tested on: Balb/C female mice; assay: Hematopoietic recovery after cyclophosphamide in mice (spleen weight, blood cell counts); format: in vivo, mouse; settings: for spleen weight: Ex 38: day 7 after CP, guanosine 5, acyl derivatives 2.5 μmoles/mouse/day in 0.2% Tween 80 i.p. 6 days, Tween 80 0.2%
Method: Twenty-four hours later and each day thereafter for a total of 6 days, mice were given a 0.4 ml i.p. injection of either physiological saline (controls), guanine (5 μmoles/mouse/day), or guanosine (5 μmoles/mouse/day). On day 7 all 10 mice in each of the three groups were bled, and then sacrificed by cervical dislocation. Spleens were removed and weighed, and complete blood cell counts performed.
Twenty-four hours later and each day thereafter for a total of 6 days, mice were given a 0.4 ml i.p injection of either physiological saline (controls), Tween 80 (0.2%), guanosine (5 μmoles/mouse/day in 0.2% Tween 80), or 2.5 μmoles per mouse per day of one of the following acylated derivatives of guanosine in 0.2% Tween 80: triacetylguanosine, octanoylguanosine, lauroylguanosine, or palmitoylguanosine. On day 7 following CP administration all 10 animals from each of the 7 groups were bled, and then sacrificed by cervical dislocation. Spleens were removed and weighed, and complete blood counts performed.
Twenty-four hours later treatment was begun. Mice were given a 0.4 ml i.p. injection of either physiological saline (controls), Tween 80 (0.2%), or palmitoylguanosine (5 μmoles/mouse/day in 0.2% Tween 80). The timing of the treatments was varied within the groups. The control group was given saline on days 1-6. The mice receiving Tween 80 were treated either on days 1-4, 4-6 or 1-6. Palmitoylguanosine-treated mice were treated either on days 1-2, 1-4, 3-5, 4-6 or 1-6. If a group of mice received no Tween 80 or palmitoylguanosine on a given day, saline was administered by i.p. injection. Thus, there were 9 groups of 9 animals in all. On day 7 following CP administration all of the animals were bled and then sacrificed by cervical dislocation. Spleens were removed and weighed, and complete blood cell counts performed.
Twenty-four hours later and each day thereafter for a total of 6 days, mice were given a 0.4 ml i.p. injection of either physiological saline (controls), Tween 80 (0.5%), or one of three different doses of octanoylguanosine (0.5, 2.5, or 5 μmoles/mouse/day in 0.5% Tween 80). On day 7 following CP administration all 9 animals from each of the […] were bled and then sacrificed by cervical dislocation. Spleens were removed and weighed, and complete blood cell counts performed.
Twenty-four hours later and each day thereafter for a total of 6 days, mice were given a 0.4 ml i.p. injection of either physiological saline (controls), Tween 80 (0.5%), or octanoylguanosine (5.0 μmoles/mouse/day in 0.5% Tween 80). On day 7 following CP administration all 10 animals from each of the 3 groups were bled and then sacrificed by cervical dislocation. Spleens were removed, weighed, and fixed in 10% formalin for later histological examination. Complete blood cell counts were performed on the collected blood.
Twenty-four hours later and each day thereafter for a total of 6 days, mice were given a 0.4 ml i.p. injection of either physiological saline (controls), benzoylguanosine (2.5 μmoles/mouse/day in 0.2% Tween 80), or palmitoylguanosine (2.5 μmoles/mouse/day in 0.2% Tween 80). On days 7 and 10 following CP administration 8 animals from each of the 3 groups were bled and then were sacrificed by cervical dislocation. Spleens were removed and weighed, and complete blood cell counts performed.
Twenty four hours later and each day thereafter for a total of 4 or 6 days, mice were given a 0.4 ml i.p. injection of either physiological saline (controls), palmitoyldeoxyinosine (2.5 μmoles/mouse), or palmitoyl-xanthosine (2.5 μmoles/mouse). On days 5 and 7 following CP administration 6 of the 12 animals in each of the 3 groups were bled and then sacrificed by cervical dislocation. Spleens were removed and weighed, and complete blood cell counts performed.

[2] = tested on: Balb/C female mice; assay: as above; format: in vivo, mouse; settings: for total neutrophil counts: 2 μmoles/mouse; for recovery of blood cell counts: Ex 58: mice treated with cyclophosphamide, other nonionic surfactants
[3] = tested on: FDCPmix cells; assay: FDCPmix cell proliferation in the presence of IL-3 (MTT assay); format: cell-based
Method: The FDCPmix cell line was used as a suitable in vitro model for predicting the effects of hematopoietic factors on pluripotential stem cells. These cells can be maintained in an undifferentiated state in the presence of IL-3 or undergo multi-lineage development in the presence of specific hematopoietic growth factors.
This level of proliferation (100%) served as the control value. Inhibition of proliferation by test compounds was represented as a percent of control.
FDCPmix cells were plated at a density of 5×10^4 cells per well in 96-well plates (5×10^5/ml) using IMDM medium plus 10% fetal bovine serum. […] Test compounds were added at a decreasing concentrations ranging from 10 micrograms/ml down to 1 nanogram/ml. The test compounds included: 3′,5′-O—N^2-tripalmitoyl-2′-deoxyguanosine, 3′,5′-di-O-palmitoyl-2′-deoxy-guanosine, 3′,5′-O—N^2-trioctanoyl-2′-deoxyguanosine, 3′,5′-di-O-octanoyl-2′-deoxyguanosine, and 3′,5′-o-N^2-trioleyl-2′-deoxy-guanosine.

[4] = Ex 47: day 7 after CP, 2.5 μmoles/mouse/day
[5] = Ex 45: day 7 after CP, dose-dependent, 0.5-5 μmoles/mouse/day
[6] = Ex 46: day 7 after CP, 5.0 μmoles/mouse/day
[7] = Ex 51: day 5 after CP, 2 μmoles/mouse i.p. daily, vs Tween-80
[8] = Dose 10 μg, 48 hours, IL-3 25 units/ml
[9] = Table 8 (Ex 63): 7 days after CP
[10] = Ex 48: day 7 after CP, 2.5 μmoles/mouse

Nc1nc2c(ncn2[C@@H]2O[C@H](COC(=O)c3ccccc3)[C@@H](O)[C@H]2O)c(=O)[nH]1
platelet number ([1]; Ex 47: day 10 after CP, 2.5 μmoles/mouse/day): significantly greater
Neutrophils [2, 4]: significantly elevated
spleen weight [2, 4]: significantly elevated
total white blood cells ([2]; Ex 47: day 7 after CP, 2.5 μmoles/mouse/day in 0.2% Tween 80 i.p. 6 days): significantly elevated

CCCCCCCC(=O)OC[C@H]1O[C@@H](n2cnc3c(=O)[nH]c(N)nc32)[C@H](O)[C@@H]1O
spleen weight [1]: significantly larger spleens
total number of neutrophils [1, 5]: significantly increased
peripheral white blood cells (WBC) [1, 6]: significantly greater
spleen size ([2]; Ex 45: day 7 after CP, 0.5, 2.5 or 5 μmoles/mouse/day in 0.5% Tween 80 i.p. 6 days): significantly larger
total number of leukocytes [2, 5]: significantly increased
Neutrophils [2, 6]: significantly greater
lymphopoiesis and myelopoiesis in the spleens (histology) [2, 6]: much greater
spleen weights ([2]; Ex 46: day 7 after CP, 5.0 μmoles/mouse/day in 0.5% Tween 80, vs saline or Tween 80): significantly greater
neutrophil counts ([2]; Ex 58: 50 mg/kg in 0.2% Tween 80 vs same dose in 0.02% Tween 80): significantly higher
neutrophil counts ([2]; Ex 58: day 7 after CP, 50 mg/kg/dose in 0.02% and 0.2% Tween 80, vs saline): significantly different from controls

CCCCCCCCCCCCCCCC(=O)O[C@H]1C[C@H](n2cnc3c(=O)[nH]c(N)nc32)O[C@@H]1CO [3′-O-palmitoyldeoxyguanosine, 3′-O-Palmitoyl-2′-Deoxyguanosine]
total neutrophil counts ([2]; Ex 51: day 5 after CP): significantly elevated
spleen weight [2, 7]: significantly elevated

CCCCCCCC(=O)OC[C@H]1O[C@@H](n2cnc3c(=O)[nH]c(N)nc32)C[C@@H]1OC(=O)CCCCCCC [DiOctdG, 3′,5′-di-O-octanoyl-2′-deoxyguanosine]
Cell proliferation (% of Control) ([3]; Dose 10 ng): 84 ± 2 % of Control
Cell proliferation (% of Control) ([3]; Dose 39 ng): 86 ± 1 % of Control
Cell proliferation (% of Control) ([3]; Dose 156 ng): 84 ± 6 % of Control
Cell proliferation (% of Control) ([3]; Dose 625 ng): 93 ± 1 % of Control
Cell proliferation (% of Control) ([3]; Dose 2.5 μg): 78 ± 2 % of Control
Cell proliferation (% of Control) [3, 8]: 100 ± .3 % of Control

CCCCCCCCCCCCCCCC(=O)OC[C@H]1O[C@@H](n2cnc3c(=O)[nH]c(NC(=O)C(C)C)nc32)C[C@@H]1O [NibuPdG, N^2-isobutyryl-5′-O-palmitoyl-2′-deoxyguanosine]
total neutrophil counts ([2]; Ex 51: day 5 after CP): significantly elevated
spleen weight [2, 7]: significantly elevated

CCCCCCCCCCCCCCCC(=O)OC[C@H]1O[C@@H](n2cnc3c(=O)[nH]cnc32)[C@H](O)[C@@H]1O [Palmitoylinosine]
Hematopoietic Recovery after cyclophosphamide ([2]; Ex 49 heading, 2.5 μmoles/mouse): Improves

CCCCCCCC(=O)Nc1nc2c(ncn2[C@H]2C[C@H](OC(=O)CCCCCCC)[C@@H](COC(=O)CCCCCCC)O2)c(=O)[nH]1 [TriOctdG, 3′,5′-O—N^2-trioctanoyl-2′-deoxyguanosine]
Cell proliferation (% of Control) ([3]; Dose 10 ng): 87 ± 4 % of Control
Cell proliferation (% of Control) ([3]; Dose 39 ng): 85 ± 2 % of Control
Cell proliferation (% of Control) ([3]; Dose 156 ng): 89 ± 6 % of Control
Cell proliferation (% of Control) ([3]; Dose 625 ng): 86 ± 2 % of Control
Cell proliferation (% of Control) ([3]; Dose 2.5 μg): 96 ± .1 % of Control
Cell proliferation (% of Control) [3, 8]: 107 ± 1 % of Control

CCCCCCCC/C=C\CCCCCCCC(=O)Nc1nc2c(ncn2[C@H]2C[C@H](OC(=O)CCCCCCC/C=C\CCCCCCCC)[C@@H](COC(=O)CCCCCCC/C=C\CCCCCCCC)O2)c(=O)[nH]1 [TriOdG, 3′,5′-O-N^2-trioleyl-2′-deoxyguanosine]
Cell proliferation (% of Control) ([3]; Dose 10 ng): 92 ± 5 % of Control
Cell proliferation (% of Control) ([3]; Dose 39 ng): 91 ± 5 % of Control
Cell proliferation (% of Control) ([3]; Dose 156 ng): 92 ± 5 % of Control
Cell proliferation (% of Control) ([3]; Dose 625 ng): 98 ± 6 % of Control
Cell proliferation (% of Control) ([3]; Dose 2.5 μg): 80 ± 2 % of Control
Cell proliferation (% of Control) [3, 8]: 110 ± 3 % of Control
lymphocyte counts ([2]; Ex 63: day 7 after CP, molar equivalent of 25 mg/kg TriPdG): increased
Platelets [2, 9]: 741 ± 54 K/μl

CCCCCCCCCCCCCCCCCC(=O)Nc1nc2c(ncn2[C@H]2C[C@H](OC(=O)CCCCCCCCCCCCCCCCC)[C@@H](COC(=O)CCCCCCCCCCCCCCCCC)O2)c(=O)[nH]1 [TriSdG, 3′,5′-O-N^2-tristearyl-2′-deoxyguanosine]
Neutrophils [2, 9]: 5.4 ± .5 K/μl
WBC [2, 9]: 7.6 ± .4 K/μl
Spleen ([2]; Table 8 (Ex 63): 7 days after CP, TriPdG 25 mg/kg, others molar equivalent, daily 5 days): 85 ± 9 mg

CC(=O)OC[C@H]1O[C@@H](n2cnc3c(=O)[nH]c(N)nc32)[C@H](OC(C)=O)[C@@H]1OC(C)=O [acetylguanosine, triacetylguanosine]
spleen weight [1]: significantly larger spleens

CCCCCCCCCCCC(=O)OC[C@H]1O[C@@H](n2cnc3c(=O)[nH]c(N)nc32)[C@H](O)[C@@H]1O [laurolyguanosine, Lauroylguanosine]
spleen weight [1]: significantly larger spleens

CCCCCCCCCCCCCCCC(=O)OC[C@H]1O[C@@H](n2c(N)nc3c(=O)[nH]c(N)nc32)[C@H](O)[C@@H]1O [palmitoyl-8-aminoguanosine]
spleen weight ([2]; Ex 59: days 5 and 7 after CP, 25 mg/kg/day): significantly elevated
Neutrophils ([2]; Ex 59: days 5 and 7 after CP, 25 mg/kg/day in 0.2% Tween 80 i.p.): significantly elevated

CCCCCCCCCCCCCCCC(=O)OC[C@H]1O[C@@H](n2cnc3c(=O)[nH]c(=O)[nH]c32)[C@H](O)[C@@H]1O [palmitoylxanthosine, Palmitoylxanthosine]
Neutrophils [1, 10]: significantly increased
total leukocytes [1, 10]: significantly increased
spleen weight [2, 10]: significantly increased

Triton X-100
recovery of blood cell counts [2]: enhanced the recovery

Tween 20
recovery of blood cell counts [2]: enhanced the recovery

Tween 40
recovery of blood cell counts [2]: enhanced the recovery

octylphenol-ethylene oxide condensate [Nonidet P-40]
recovery of blood cell counts [2]: enhanced the recovery

polyoxyethylene-10-oleyl ether [Brij 96]
recovery of blood cell counts [2]: enhanced the recovery
